Measurements: US20240000119A1, “MEGASTIGMANE DERIVATIVE COMPOSITIONS AND METHODS FOR TASTE MODULATION” (INTERNATIONAL FLAVORS & FRAGRANCES, priority 2020, published 2024)

Legend:
[1] = Flavor profiles of megastigmane derivative solutions in water compared with sucrose solution
Source text: The flavor profiles of various megastigmane derivative solutions in water including lauroside A (0.5 ppm), ampelopsisionoside (0.5 ppm), bridelionoside F (0.5 ppm), actinidioionoside (0.5 ppm) and roseoside solutions (0.5 ppm) were each compared with that of sucrose solution (1.5%).

[2] = Enhancement of sucrose sweetness: flavor profile of sucrose base solution with added megastigmane derivative; conditions: 0.5 ppm in sucrose base solution (4%)
Protocol: (§1) A sucrose base solution (4%) (“base”) was prepared in water.
Solutions of lauroside A, ampelopsisionoside, bridelionoside F and actinidioionoside were prepared in water (0.01%).
The solutions of lauroside A, ampelopsisionoside, bridelionoside F and actinidioionoside (0.01%) were added to the base, respectively, to a final concentration of 0.5 ppm. The flavor profiles of the sucrose base solution with added megastigmane derivatives are reported in the following: […]

[3] = Sweetness enhancement at different concentrations: flavor profile of sucrose base solution with added roseoside
Protocol: as §1
Roseoside was added to the base to provide a series of solutions with concentrations ranging from 1 ppb to 5 ppm. The flavor profile of the sucrose solution with added roseoside is reported in the following: […]

[4] = Enhancement of mouthfeel by roseoside in water
[5] = 0.5 ppm in water, compared with sucrose solution (1.5%)

CC(/C=C/C1(O)C(C)(C)CC(O)CC1(C)O)OC1OC(CO)C(O)C(O)C1O (stereo not shown) [Actinidioionoside, actinidioionoside]
sweet taste (flavor profile) [1, 5]: none of the megastigmane derivation solutions exhibited a sweet taste | Flavor Profile [2]: Enhanced sweetness and mouthfeel

CC(/C=C/C1(O)C(C)CC(=O)CC1(C)C)OC1OC(CO)C(O)C(O)C1O (stereo not shown) [Ampelopsisionoside, ampelopsisionoside]
sweet taste (flavor profile) [1, 5]: none of the megastigmane derivation solutions exhibited a sweet taste

CC1=C(/C=C/C(C)OC2OC(CO)C(O)C(O)C2O)C(C)(C)CC(O)C1O (stereo not shown) [Bridelionoside F, bridelionoside F]
sweet taste (flavor profile) [1, 5]: none of the megastigmane derivation solutions exhibited a sweet taste | Flavor Profile [2]: Enhanced sweetness and mouthfeel with para

CC(/C=C/C1(O)C(C)CC(=O)CC1(C)C)OC1OC(CO)C(O)C(O)C1O (stereo not shown) [Lauroside A, lauroside A]
sweet taste (flavor profile) [1, 5]: none of the megastigmane derivation solutions exhibited a sweet taste | Flavor Profile [2]: Enhanced sweetness and mouthfeel, mouth coating,

CC1=CC(=O)CC(C)(C)C1(O)/C=C/C(C)OC1OC(CO)C(O)C(O)C1O (stereo not shown) [Roseoside, roseoside]
sweet taste (flavor profile) [1, 5]: none of the megastigmane derivation solutions exhibited a sweet taste | Flavor Profile ([3]; 1 ppb in sucrose base solution (4%)): Slightly enhanced sweetness and viscous mouthfeel | Flavor Profile ([3]; 1 ppm in sucrose base solution (4%)): Slightly enhanced and lingering sweetness, viscous | Flavor Profile ([3]; 5 ppm in sucrose base solution (4%)): More enhanced and lingering sweetness, slight | Flavor Profile ([3]; 10 ppb in sucrose base solution (4%)): Slightly enhanced and lingering sweetness, viscous | Flavor Profile ([3]; 100 ppb in sucrose base solution (4%)): Slightly enhanced and lingering sweetness, viscous | Flavor Profile ([4]; 0.5 ppm in water): Slight astringency, not sweet | Flavor Profile ([4]; 2 ppm in water): Slight astringency, very slight bitterness, slightly

OC[C@H]1O[C@@](CO)(O[C@H]2O[C@H](CO)[C@@H](O)[C@H](O)[C@H]2O)[C@@H](O)[C@@H]1O [sucrose, reference compound]
sweet taste (flavor profile) ([1]; sucrose solution (1.5%)): tasted slightly sweet
